For experiment [1], the system named is Salmonella Newport. As to conditions: described values; cited from earlier work.
Experiment [2] has as its system C. michiganensis cytoplasmic membrane. Nature of the experiment: Test for depolarization of membranes, diSC3(5) fluorescence. The format is cell-based. As to conditions: FLs 60 μg/ml; valinomycin 1 μM; C. michiganensis cells. As to the method: To study the possible mechanism underlying the FLs antimicrobial activity, the effect of the application of FLs upon C. michiganensis cytoplasmic membrane was assessed (FIG. 4), by using the cyanine stain method with 3,3′-Dipropylthiadicarbocianine iodide (diSC3 (5)) (Biochemistry (1999), 38(22), 7235-7242.).
The depolarization of the membrane in the bacterium C. michiganensis as controlled through changes in the intensity of the fluorescence emission of the diSC3 (5) membrane-sensitive stain (Biochemistry, (1999), 38(22), 7235-7242.). C. michiganensis was grown in LB liquid medium and incubated in a stirrer (120 rpm) at 26° C., up to the growth in a median logarithmic phase (OD600=0.5). The harvested cells were centrifuged and washed once (glucose 5 mM and HEPES 20 mM pH 7.3) and were suspended again up to a final OD600 final=0.05 in the same buffer. […]
After the addition of 0.4 μM de diSC3 (5), the sample cells that contained bacterial cells were incubated at 26° C. until a stable reduction of the fluorescence (about 5 minutes) was reached, what indicated the incorporation of the stain into the bacterial membrane. Afterwards, the FLs, valinomycin or water were added and the stain fluorescence increase at 622 nm (excitation wavelength) and 670 nm (emission wavelength) with a RF-5301 PC spectrofluorometer (Shimadzu, Kyoto, Japan) was recorded. […]

In experiment [3] the test system is B. cinerea (gray mold). Nature of the experiment: Test for resistance to diseases in strawberry fruits, controlled conditions of growth. Format: in vivo, Botrytis cinerea. As to conditions: FLs 10 μg/ml, HeT 0.8 mg/ml, sodium hypochlorite 4%. As to the method:
(§1) Fruits inoculated under controlled conditions of growth: Healthy and ripe strawberries collected in the field were disinfected by means of washing in ethanol at 70%, sodium hypochlorite at 10% and sterile water. The disinfected fruits were immersed in an FLs solution (10 μg/ml) and incubated at 25° C., 90% of humidity and 16 hours of photoperiod. After 2 days of incubation, the surface of the treated fruits was inoculated with a fungus spore suspension of 20 μl ([…]) of B. cinerea or P. digitatum, and were incubated in the same growth conditions above described. Seven days after the pathogen inoculation, the incidence (% of infected fruits) and the severity (degree of affected fruit surface) of the disease were assessed. The fruits sprayed with a solution of sodium hypochlorite at 4% were used as a protection positive control and the sterile fruits treated with water, as negative controls. Besides, a treatment with the plant defense inducer HeT (0.8 mg/ml) was included. The FL and HeT concentrations were subinhibitory for fungal growth.

In experiment [4] the test system is P. digitatum (blue mold). The experiment is described as above. Format: in vivo, Penicillum digitatum. As to conditions: FLs 10 μg/ml, HeT 0.8 mg/ml, sodium hypochlorite 4%. As to the method:
as §1

Experiment [5] relates to Colletotrichum gloeosporioides L9. To be noted: described values; cited from earlier work.
The test system of experiment [6] is Colletotrichum fragariae F7. To be noted: described values; cited from earlier work.
Experiment [7] relates to Colletotrichum acutatum. Nature of the experiment: Test for resistance to disease in strawberry plants (anthracnose). The format is in vivo. As to conditions: salicylic acid 5 mM; acibenzolar-s-methyl 1 mM. As to the method: Healthy plants of the cv“Pájaro” (“Bird”) 3 months old of Fragaria×ananassa from in vitro tissue cultures, with the FLs compounds at a preferred concentration of 0.03 μg/ml were sprayed and 5 days later they were exposed to the pathogen fungus Colletotrichum acutatum, causative agent of the anthracnose disease (European Journal of Plant Pathology, (2007) 117, 109-122). The infected plants were incubated in a growth chamber under optimal conditions for the proliferation of the fungi and the development of the disease (28° C., 80% of relative humidity and a photoperiod of 16 hours). Seven days after incubation, the gravity symptoms of petiole disease were assessed according to the scale proposed by Delp and Milholland (Plant Disease, (1980), 64(12), 1071-1073), that assigns values of gravity comprised between 1 (healthy plant) and 5 (very grave or dead plant). As positive controls of the induction of a defense against pathogens, the treatment with FLs was replaced by salicylic acid 5 mM or 1 mM of […] or BTH, a salicylic acid analogous that induces a […] defense in plants. It is worth noting that the FLs, BTH and salicylic acid concentrations used were subinhibitory for C. acutatum growth. As a negative control of defense induction, the plants were sprayed with sterile distilled water.

The test system of experiment [8] is Bacillus subtilis. As to conditions: described values; cited from earlier work.
Experiment [9] deals with Micrococcus sp. To be noted: described values; cited from earlier work.
The test system of experiment [10] is Listeria monocytogenes. As to conditions: described values; cited from earlier work.
Experiment [11] relates to Rhodococcus fascians. As to conditions: values described for other antimicrobial compounds; cited from earlier work.
In experiment [12] the test system is Citrobacter sp. As to conditions: described values; cited from earlier work.
Experiment [13] deals with Proteus sp. To be noted: described values; cited from earlier work.
Experiment [14] has as its system Pseudomona aeruginosa. To be noted: described values; cited from earlier work.
The test system of experiment [15] is Escherichia coli MC 4100. As to conditions: described values; cited from earlier work.
Experiment [16] concerns Staphylococcus epidermidis. As to conditions: described values; cited from earlier work.
Experiment [17] concerns Staphylococcus aureus. As to conditions: described values; cited from earlier work.
Experiment [18] relates to Enterococcus faecium CRL35. As to conditions: described values; cited from earlier work.
The test system of experiment [19] is Colletotrichum acutatum M11. As to conditions: described values; cited from earlier work.
Experiment [20] concerns Xanthomonas fragariae. As to conditions: described values; cited from earlier work.
The test system of experiment [21] is P. digitatum. Nature of the experiment: Protection against postharvest diseases in fruits of lemon tree, preventive effect. The format is in vivo, Penicillum digitatum. To be noted: Imazalil 500 ppm.
The test system of experiment [22] is Botritys cinerea. As to conditions: described values; cited from earlier work.
Experiment [23] concerns Penicillum digitatum. To be noted: described values; cited from earlier work.

This is an account of results in patent US12185721B2, “Glycoside compound of fatty acids, composition comprising it, process for its obtention and methods to apply it on plants or fruits or both at the same time” (Consejo Nacional de Investigaciones Científicas y Técnicas …, priority 2020, dated 2025).

No end group written: not given here.

For the molecule `NCC[C@H](O)C(=O)N[C@@H]1C[C@H](N)[C@@H](O[C@H]2O[C@H](CN)[C@@H](O)[C@H](O)[C@H]2O)[C@H](O)[C@H]1O[C@H]1O[C@H](CO)[C@@H](O)[C@H](N)[C@H]1O` [Amikasin], the “CE50 (μg/ml) for commercial antimicrobial” value (from here on “CE50 (μg/ml)”) in experiment [1] was “Amikasin 2 μg/ml”.
Turning to `CC(C)[C@@H]1NC(=O)[C@H](C)OC(=O)[C@@H](C(C)C)NC(=O)[C@@H](C(C)C)OC(=O)[C@H](C(C)C)NC(=O)[C@H](C)OC(=O)[C@@H](C(C)C)NC(=O)[C@@H](C(C)C)OC(=O)[C@H](C(C)C)NC(=O)[C@H](C)OC(=O)[C@@H](C(C)C)NC(=O)[C@@H](C(C)C)OC1=O` [valinomycin, reference compound], the “increase of diSC3 (5) fluorescence (membrane depolarization)” value in experiment [2] is “induced a fluorescence increase similar to the one seen with the FL compound”.
For the molecule `OCl` [sodium hypochlorite, reference compound], in experiment [3], the “reduction of gray mold incidence” value was 70% and the “reduction of gray mold severity” value is on record as 45%. Moreover, in experiment [4], the “reduction of blue mold incidence” value amounted to 50% and the “reduction of blue mold severity” value is recorded as 40%.
As to `CCCCNC(=O)n1c(NC(=O)OC)nc2ccccc21` [Benomyl], the “CE50 (μg/ml)” value in experiment [5] and in experiment [6] was “Benomyl 0.29 μg/ml” in each case.
In the case of `O=C(O)c1ccccc1O` [salicylic acid], the “protection against anthracnose compared with FLs” value in [7] is recorded as “comparable”.
As to `CC[C@H]1OC(=O)[C@H](C)[C@@H](O[C@H]2C[C@@](C)(OC)[C@@H](O)[C@H](C)O2)[C@H](C)[C@@H](O[C@@H]2O[C@H](C)C[C@H](N(C)C)[C@H]2O)[C@](C)(O)C[C@@H](C)CN(C)[C@H](C)[C@@H](O)[C@]1(C)O` [Azythromicin], the “CE50 (μg/ml)” value in experiment [8] was “Azythromicin 2 μg/ml”; in experiment [9] it was “Azythromicin 0.12 μg/ml”; in experiment [10], “Azythromicin 0.5 μg/ml”; in experiment [11] it was “Azythromicin 0.5 μg/ml”.
For the molecule `CSC(=O)c1cccc2nnsc12` [acibenzolar-s-methyl], in experiment [7], the “protection against anthracnose compared with FLs” value is given as “comparable”.
As for `C[C@@H](O)[C@H]1C(=O)N2C(C(=O)O)=C(S[C@@H]3CN[C@H](C(=O)N(C)C)C3)[C@H](C)[C@H]12` [Meropenem], the “CE50 (μg/ml)” value in [12] is on record as “Meropenem 0.02 μg/ml”; in [13] it was “Meropenem 0.1 μg/ml”; in [14], “Meropenem 0.2 μg/ml”; in experiment [15], “Meropenem 0.01 μg/ml”.
`CN[C@H](CC(C)C)C(=O)N[C@H]1C(=O)N[C@@H](CC(N)=O)C(=O)N[C@H]2C(=O)N[C@H]3C(=O)N[C@H](C(=O)N[C@H](C(=O)O)c4cc(O)cc(O)c4-c4cc3ccc4O)[C@H](O)c3ccc(c(Cl)c3)Oc3cc2cc(c3O[C@@H]2O[C@H](CO)[C@@H](O)[C@H](O)[C@H]2O[C@H]2C[C@](C)(N)[C@H](O)[C@H](C)O2)Oc2ccc(cc2Cl)[C@H]1O` [Vancomycin]: the “CE50 (μg/ml)” value in experiment [16] was “Vancomycin 1.56 μg/ml”; in experiment [17] it was “Vancomycin 0.78 μg/ml”; in [18], “Vancomycin 0.78 μg/ml”.
In the case of `O=C1C2CC=CCC2C(=O)N1SC(Cl)(Cl)Cl` (stereo not shown) [Captan], the “CE50 (μg/ml)” value in experiment [19] is listed as “Captan 1 μg/ml”.
Consider “Cecropin B (KWKVFKKIEKMGRNIRNGIVKAGPAIAVLGEAKAL; ends and bridges not checked; UniProt P01508 27-61, looked up) [commercial antimicrobial]”, for which the “CE50 (μg/ml)” value in [20] is recorded as “Cecropin B 0.04 μg/ml”.
Turning to `CC[C@H]1OC(=O)[C@H](C)[C@@H](O[C@H]2C[C@@](C)(OC)[C@@H](O)[C@H](C)O2)[C@H](C)[C@@H](O[C@@H]2O[C@H](C)C[C@H](N(C)C)[C@H]2O)[C@](C)(O)C[C@@H](C)C(=O)[C@H](C)[C@@H](O)[C@]1(C)O` [Erythromycin], the “CE50 (μg/ml)” value is “Erythromycin 0.25 μg/ml” in experiment [8], “Erythromycin 0.12 μg/ml” in experiment [9], “Erythromycin 0.25 μg/ml” in experiment [10] and “Erythromycin 0.25 μg/ml” in experiment [11].
As to `C=CCOC(Cn1ccnc1)c1ccc(Cl)cc1Cl` (stereo not shown) [Imazalil], in experiment [21], the “protection of lemons compared with FLs 0.1 mg/ml” value was “comparable”. For the same molecule, the “CE50 (μg/ml)” value is reported as “Imazalil 8 μg/ml” in experiment [22] and “Imazalil 6 μg/ml” in experiment [23].
With `CC[C@H]1OC(=O)[C@H](C)[C@@H](O[C@H]2C[C@@](C)(OC)[C@@H](O)[C@H](C)O2)[C@H](C)[C@@H](O[C@@H]2O[C@H](C)C[C@H](N(C)C)[C@H]2O)[C@](C)(OC)C[C@@H](C)C(=O)[C@H](C)[C@@H](O)[C@]1(C)O` [Clarythromicin], the “CE50 (μg/ml)” value is reported as “Clarythromicin 0.12 μg/ml” in [8], “Clarythromicin 0.06 μg/ml” in experiment [9], “Clarythromicin 0.12 μg/ml” in experiment [10] and “Clarythromicin 0.06 μg/ml” in experiment [11].
